Key:
OVCAR-3 [1] = experiment: Antimitotic activity in human OVCAR-3 cells xenografted in CD-1 mouse assessed as fold increase in mitotic cells in tumor at 100 mg/kg, po measured after 24 hrs relative to control; format: functional
[2] = molecular target: T1, Kinesin-like protein KIF18A (Homo sapiens, UniProt Q8NI77); experiment: Inhibition of recombinant His-tagged human KIF18A (1 to 467 residues) expressed in Trichoplusia ni insect cells assessed as inhibition of microtubule-stimulated ATPase activity preincubated for 30 mins followed by ATP addition and further incubated for 15 mins by ADP-Glo reagent based assay; parameters: species or system Insect cell
T1 sequence (Q8NI77 whole entry): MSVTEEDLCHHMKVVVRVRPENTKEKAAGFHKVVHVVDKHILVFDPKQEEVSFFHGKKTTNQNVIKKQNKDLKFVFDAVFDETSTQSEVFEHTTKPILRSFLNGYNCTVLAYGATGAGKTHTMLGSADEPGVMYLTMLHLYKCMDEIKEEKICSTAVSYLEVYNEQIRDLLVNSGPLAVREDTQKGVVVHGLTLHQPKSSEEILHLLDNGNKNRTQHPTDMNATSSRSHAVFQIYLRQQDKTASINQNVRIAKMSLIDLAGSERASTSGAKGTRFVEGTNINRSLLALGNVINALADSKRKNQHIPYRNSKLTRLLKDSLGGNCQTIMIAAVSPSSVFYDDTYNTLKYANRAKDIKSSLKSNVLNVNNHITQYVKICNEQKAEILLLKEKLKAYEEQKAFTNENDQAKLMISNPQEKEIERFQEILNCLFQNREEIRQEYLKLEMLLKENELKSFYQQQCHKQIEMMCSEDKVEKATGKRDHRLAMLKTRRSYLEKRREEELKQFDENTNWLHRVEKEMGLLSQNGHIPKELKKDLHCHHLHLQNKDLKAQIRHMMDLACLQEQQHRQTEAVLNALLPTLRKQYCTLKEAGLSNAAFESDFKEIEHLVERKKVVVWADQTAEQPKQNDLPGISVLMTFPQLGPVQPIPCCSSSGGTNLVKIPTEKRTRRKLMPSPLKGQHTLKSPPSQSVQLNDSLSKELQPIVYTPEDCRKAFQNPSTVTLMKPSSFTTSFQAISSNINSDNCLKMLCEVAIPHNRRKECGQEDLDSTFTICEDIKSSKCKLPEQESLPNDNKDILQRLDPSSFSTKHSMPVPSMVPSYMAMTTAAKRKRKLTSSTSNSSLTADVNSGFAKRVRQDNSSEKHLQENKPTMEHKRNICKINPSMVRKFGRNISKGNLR

[3] = Binding affinity to KIF18A- MT complex (unknown origin) by NMR based assay; parameters: species or system Homo sapiens
Tubulin = experiment: Binding affinity to microtubule (unknown origin) by NMR based assay; format: protein-complex assay, Homo sapiens
[4] = molecular target: T1, Kinesin-like protein KIF18A; experiment: Binding affinity to KIF18A (unknown origin) by NMR based assay
[5] = molecular target: T1, Kinesin-like protein KIF18A; experiment: Inhibition of KIF18A ATPase activity (unknown origin)
[6] = Metabolic stability in mouse liver microsomes assessed as intrinsic clearance at 0.5 uM incubated upto 40 mins by LCMS analysis; format: ADME, Microsome; conditions: read-out: CLH
[7] = Metabolic stability in human liver microsomes assessed as intrinsic clearance at 0.5 uM incubated upto 40 mins by LCMS analysis; format: ADME, Microsome; conditions: read-out: CLH
OVCAR-3 [8] = experiment: Induction of mitotic arrest in human OVCAR-3 cells assessed as p-histone H3 incubated for 24 hrs by mitotic - imaging assay; format: functional, cell-based; conditions: OVCAR-3, 24 h
OVCAR-3 [9] = experiment: Antiproliferative activity against human OVCAR-3 cells by nuclear count assay; format: functional, cell-based
[10] = Cmax in CD-1 mouse xenografted with human OVCAR-3 cells at 100 mg/kg, ip by LC-MS/MS analysis; format: ADME, organism-based; parameters: dose 100 mg/kg, route ip; conditions: in vivo
[11] = AUC (0 to 24 hrs) in CD-1 mouse xenografted with human OVCAR-3 cells at 100 mg/kg, ip by LC-MS/MS analysis; format: ADME, organism-based; parameters: dose 100 mg/kg, route ip; conditions: in vivo
[12] = Plasma concentration in CD-1 mouse xenografted with human OVCAR-3 cells at 100 mg/kg, ip measured upto 24 hrs by LC-MS/MS analysis; format: ADME, organism-based
[13] = Unbound fraction in CD-1 mouse plasma xenografted with human OVCAR-3 cells at 100 mg/kg, ip by LC-MS/MS analysis; format: ADME, organism-based
[14] = Drug metabolism in mouse liver microsomes assessed as mono-hyoxylate metabolite formation in presence of NADPH by LC-MS/MS analysis; format: ADME, Microsome
[15] = Drug metabolism in mouse liver microsomes assessed as di-hydroxylate metabolite formation in presence of NADPH by LC-MS/MS analysis; format: ADME, Microsome

IC50 [2]	microsomal CLint at 0.5 µM [6]	microsomal CLint at 0.5 µM [7]	EC50 (OVCAR-3 [8])	EC50 (OVCAR-3 [9])	Compound	further results
					CC[C@@H]1C(=O)N(C)c2cnc(Nc3ccc(C(=O)NC4CCN(C)CC4)cc3OC)nc2N1C1CCCC1 [BI-2536]	fold change (FC) (OVCAR-3 [1]): >3
90 nM					C[C@H](NS(=O)(=O)c1cccc(NC(=O)c2ccc(NC(CO)CO)nc2N2CCC3(CC2)CC3)c1)C(F)(F)F	Kd [3]: 150 nM; Kd (Tubulin): 25000 nM; Kd [4]: > 50000 nM; IC50 [5]: 32000 nM
28 nM	81 µL/min/mg	79 µL/min/mg	16 nM	16 nM	CC(C)(C)NS(=O)(=O)c1cccc(NC(=O)c2ccc(NS(C)(=O)=O)cc2N2CCC3(CC2)CC3)c1	Cmax [10]: 12.6 µM; AUC(0-t) [11]: 147 µM·h; concentration at 24 h [12]: 2.9 µM; fraction unbound [13]: 0.007
410 nM	> 399 µL/min/mg	> 399 µL/min/mg	1870 nM	1240 nM	O=C(Nc1cccc(S(=O)(=O)C2CCCC2)c1)c1cccnc1N1CCC2(CC1)CC2	Drug metabolism [14]: Metabolite_Detected; Drug metabolism [15]: Metabolite_Detected

From ChEMBL document CHEMBL5223091, “Targeting the Mitotic Kinesin KIF18A in Chromosomally Unstable Cancers: Hit Optimization Toward an In Vivo Chemical Probe” (J Med Chem, 2022)
